Test results published in US20230096766A1, “AMINO ACID HAVING FUNCTIONAL GROUP CAPABLE OF INTERMOLECULAR HYDROGEN BONDING, PEPTIDE COMPOUND CONTAINING SAME AND METHOD FOR PRODUCTION THEREOF” (Chugai Seiyaku Kabushiki Kaisha, priority 2018, published 2023).
*1 amine or outer side, *2 acyl side, *3 side chain or, on linkers, in order; H or OH if unused. Where a SMILES comes first, the peptide text is derived from it. Bridges are numbered along the chain shown (N, C = ends). [ ]: non-standard residue; d: D form. The star is where a group is joined. ξ: configuration not given here. Phe(3-CONHMe,4-OMe) = CNC(=O)c1cc(C[C@H](N)C(=O)O)ccc1OC; NMePhe(3-Cl) = CN[C@@H](Cc1cccc(Cl)c1)C(=O)O; Tyr(3-OMe) = COc1cc(C[C@H](N)C(=O)O)ccc1O; NMeW = CN[C@@H](Cc1c[nH]c2ccccc12)C(=O)O; NMehPhe = CN[C@@H](CCc1ccccc1)C(=O)O; Propyl(2,2-Me2,3-OH) = CC(C)(CO)C*; NMeF = CN[C@@H](Cc1ccccc1)C(=O)O; NMeGABA = CN(CCCC(=O)[*:2])[*:1]; NMeI = CC[C@H](C)[C@H](NC)C(=O)O; Butyl(3-Me,3-OH) = CC(C)(O)CC*; NMeD = CN[C@@H](CC(=O)O)C(=O)O; NMeL = CN[C@@H](CC(C)C)C(=O)O; Propyl(2R-OH) = C[C@@H](O)C*; Butyl(3S-OH) = C[C@H](O)CC*; NMeV = CN[C@H](C(=O)O)C(C)C; NMeA = CN[C@@H](C)C(=O)O; Piperidide = C1CCN(*)CC1; CH2CMe2OH = CC(C)(O)C*; NBuGly = CCCCNCC(=O)O; Isopentyl = CC(C)CC*; NPrGly = CCCNCC(=O)O; Ethyl(2-OH) = OCC*; ξS = NC(CO)C(=O)O; Sar = CNCC(=O)O; tBu = CC(C)(C)*

Test: in vitro
Conditions: human, Caco-2, Caco-2 (cm/sec)

Structure (SMILES)	Papp
CC[C@H](C)[C@@H]1NC(=O)[C@H](CC(C)C)N(C)C(=O)CCCN(C)C(=O)C[C@@H](C(=O)N2CCCCC2)NC(=O)[C@H](CC(C)C)N(C)C(=O)[C@H](CC(C)C)N(C)C(=O)[C@H]([C@@H](C)O)NC(=O)[C@H](CC(C)C)N(C)C(=O)[C@H](COC(C)(C)C)NC(=O)[C@H](Cc2c[nH]c3ccccc23)N(C)C(=O)[C@H](Cc2ccccc2)N(C)C1=O [pd107] ([NMeGABA][NMeL]I[NMeF][NMeW]S(tBu)[NMeL]T[NMeL][NMeL]D-Piperidide; lactam N-11)	0.17 ×10⁻⁶ cm/s
CCCN1CC(=O)N(C)[C@@H](CCc2ccccc2)C(=O)N(C)[C@@H](CC(C)C)C(=O)N[C@@H](COCCC(C)C)C(=O)N(C)[C@@H](CC(C)C)C(=O)N[C@H](C(=O)N2CCCCC2)CC(=O)N(C)CC(=O)N(C)[C@@H](Cc2cccc(Cl)c2)C(=O)N[C@@H](COCCO)C(=O)N(C)[C@@H](CC(C)C)C(=O)N[C@@H]([C@@H](C)O)C1=O [Compound A07] ([Sar][NMePhe(3-Cl)]S(Ethyl(2-OH))[NMeL]T[NPrGly][NMehPhe][NMeL]S(Isopentyl)[NMeL]D-Piperidide; lactam N-11)	0.53 ×10⁻⁶ cm/s
CC(C)C[C@H]1C(=O)N[C@@H](C(C)C)C(=O)N(C)[C@@H](Cc2ccccc2)C(=O)N(C)[C@@H](Cc2cccc(Cl)c2)C(=O)NC(COCC[C@H](C)O)C(=O)N(C)[C@@H](CC(C)C)C(=O)N[C@@H]([C@@H](C)O)C(=O)N(C)[C@@H](CC(C)C)C(=O)N(C)[C@@H](CC(C)C)C(=O)N[C@H](C(=O)N2CCCCC2)CC(=O)N(C)CCCC(=O)N1C (stereo partly drawn) [AP102] ([NMeGABA][NMeL]V[NMeF][NMePhe(3-Cl)][ξS](Butyl(3S-OH))[NMeL]T[NMeL][NMeL]D-Piperidide; lactam N-11)	0.43 ×10⁻⁶ cm/s
CC(C)C[C@@H]1NC(=O)[C@H](Cc2ccccc2)N(C)C(=O)[C@@H](C(C)C)NC(=O)C[C@@H](C(=O)N2CCCCC2)NC(=O)[C@H](CC(C)C)N(C)C(=O)[C@H](Cc2ccccc2)N(C)C(=O)[C@H](COCC(C)(C)CO)NC(=O)[C@H](CC(C)C)N(C)C(=O)CN(C)C(=O)[C@H]([C@@H](C)O)NC(=O)[C@H](CC(C)C)N(C)C1=O [AP118] ([dV][NMeF]L[NMeL]T[Sar][NMeL]S(Propyl(2,2-Me2,3-OH))[NMeF][NMeL]D-Piperidide; lactam N-11)	1.8 ×10⁻⁶ cm/s
CCCN1CC(=O)N(C)[C@@H](Cc2ccccc2)C(=O)N[C@@H]([C@@H](C)CC)C(=O)N(C)[C@@H](CC(C)C)C(=O)N[C@@H]([C@@H](C)O)C(=O)N(CCC)CC(=O)N(C)[C@@H](Cc2ccccc2)C(=O)N(C)[C@@H](CC(C)C)C(=O)N[C@@H](COCC(C)(C)O)C(=O)N(C)[C@@H](C(C)C)C(=O)N[C@H](C(=O)N2CCCCC2)CC1=O [AP09] ([NPrGly][NMeF]I[NMeL]T[NPrGly][NMeF][NMeL]S(CH2CMe2OH)[NMeV]D-Piperidide; lactam N-11)	1.1 ×10⁻⁶ cm/s
CCCN1CC(=O)N(C)[C@@H](Cc2ccccc2)C(=O)N(C)[C@@H](CC(C)C)C(=O)N[C@@H](COCC(C)(C)O)C(=O)N(C)[C@@H](CC(C)C)C(=O)N[C@H](C(=O)N2CCCCC2)CC(=O)N(C)CC(=O)N(C)[C@@H](Cc2ccccc2)C(=O)N[C@@H]([C@@H](C)CC)C(=O)N(C)[C@@H](CC(C)C)C(=O)N[C@@H]([C@@H](C)O)C1=O [AP08] ([Sar][NMeF]I[NMeL]T[NPrGly][NMeF][NMeL]S(CH2CMe2OH)[NMeL]D-Piperidide; lactam N-11)	0.67 ×10⁻⁶ cm/s
CCCCN1CC(=O)N(C)[C@@H](CC(C)C)C(=O)N[C@@H](Cc2ccc(OC)c(C(=O)NC)c2)C(=O)N(C)[C@@H](CC(C)C)C(=O)N(C)[C@@H](CC(C)C)C(=O)N[C@H](C(=O)N2CCCCC2)CC(=O)N[C@H](CC(C)C)C(=O)N(C)[C@@H](Cc2ccccc2)C(=O)N[C@@H](C(C)C)C(=O)N(C)[C@@H](CC(C)C)C(=O)N[C@@H]([C@@H](C)O)C1=O [AP36] ([dL][NMeF]V[NMeL]T[NBuGly][NMeL][Phe(3-CONHMe,4-OMe)][NMeL][NMeL]D-Piperidide; lactam N-11)	0.26 ×10⁻⁶ cm/s
CC(C)C[C@@H]1NC(=O)[C@H](Cc2ccccc2)N(C)C(=O)[C@H](C)N(C)C(=O)C[C@@H](C(=O)N2CCCCC2)N(C)C(=O)[C@H](Cc2ccccc2)N(C)C(=O)[C@H](Cc2ccccc2)N(C)C(=O)[C@H](COC(C)(C)C)NC(=O)[C@H](C(C)C)N(C)C(=O)CN(C)C(=O)[C@H]([C@@H](C)O)NC(=O)[C@H](CC(C)C)N(C)C1=O [pd202] ([NMeA][NMeF]L[NMeL]T[Sar][NMeV]S(tBu)[NMeF][NMeF][NMeD]-Piperidide; lactam N-11)	2.1 ×10⁻⁶ cm/s
CC[C@H](C)[C@H]1C(=O)N[C@@H]([C@@H](C)O)C(=O)N(C)CC(=O)N(C)[C@@H](CC(C)C)C(=O)N[C@H](C(=O)N2CCCCC2)CC(=O)N(C)[C@@H](C(C)C)C(=O)N[C@@H](COC[C@@H](C)O)C(=O)N(C)[C@@H](CC(C)C)C(=O)N(C)[C@@H](Cc2cccc(Cl)c2)C(=O)N[C@@H](CC(C)C)C(=O)N(C)[C@@H](Cc2ccccc2)C(=O)N1C [AP79] ([NMeV]S(Propyl(2R-OH))[NMeL][NMePhe(3-Cl)]L[NMeF][NMeI]T[Sar][NMeL]D-Piperidide; lactam N-11)	1.1 ×10⁻⁶ cm/s
CC(C)C[C@@H]1NC(=O)[C@H](Cc2ccccc2)N(C)C(=O)[C@H](CC(C)C)N(C)C(=O)[C@H](COCCC(C)(C)O)NC(=O)[C@H](C)N(C)C(=O)C[C@@H](C(=O)N2CCCCC2)NC(=O)[C@H](CC(C)C)N(C)C(=O)CN(C)C(=O)[C@H]([C@@H](C)O)NC(=O)[C@H](CC(C)C)N(C)C(=O)[C@H](CCc2ccccc2)N(C)C1=O [AP55] ([NMeA]S(Butyl(3-Me,3-OH))[NMeL][NMeF]L[NMehPhe][NMeL]T[Sar][NMeL]D-Piperidide; lactam N-11)	1.3 ×10⁻⁶ cm/s
CC[C@H](C)[C@@H]1NC(=O)[C@H](CC(C)C)N(C)C(=O)CCCN(C)C(=O)C[C@@H](C(=O)N2CCCCC2)NC(=O)[C@H](CC(C)C)N(C)C(=O)[C@H](CC(C)C)N(C)C(=O)[C@H]([C@@H](C)O)NC(=O)[C@H](CC(C)C)N(C)C(=O)[C@H](Cc2ccc(O)c(OC)c2)NC(=O)[C@H](CC(C)C)N(C)C(=O)[C@H](Cc2ccccc2)N(C)C1=O [Compound E03] ([NMeGABA][NMeL]I[NMeF][NMeL][Tyr(3-OMe)][NMeL]T[NMeL][NMeL]D-Piperidide; lactam N-11)	0.18 ×10⁻⁶ cm/s
CC[C@H](C)[C@@H]1NC(=O)[C@H](C(C)C)N(C)C(=O)CCCN(C)C(=O)C[C@@H](C(=O)N2CCCCC2)NC(=O)[C@H](CC(C)C)N(C)C(=O)[C@H](CC(C)C)N(C)C(=O)[C@H]([C@@H](C)O)NC(=O)[C@H](CC(C)C)N(C)C(=O)[C@H](COCCC(C)(C)O)NC(=O)[C@H](Cc2cccc(Cl)c2)N(C)C(=O)[C@H](Cc2ccccc2)N(C)C1=O [AP54] ([NMeGABA][NMeV]I[NMeF][NMePhe(3-Cl)]S(Butyl(3-Me,3-OH))[NMeL]T[NMeL][NMeL]D-Piperidide; lactam N-11)	1.4 ×10⁻⁶ cm/s

Same assay, conditions: human, Caco-2, Caco-2 (cm/sec) Papp

Structure (SMILES)	Papp
CC(C)C[C@H]1C(=O)N(C)[C@@H](Cc2ccccc2)C(=O)N(C)[C@@H](Cc2ccccc2)C(=O)N[C@@H]([C@@H](C)O)C(=O)N(C)[C@@H](C)C(=O)N(C)[C@@H](Cc2ccccc2)C(=O)N[C@H](C(=O)N2CCCCC2)CC(=O)N(C)[C@@H](C)C(=O)N(C)[C@@H](CC(C)C)C(=O)N(C)[C@@H](Cc2ccccc2)C(=O)N[C@@H](C)C(=O)N1C [pd232] ([NMeA][NMeL][NMeF]A[NMeL][NMeF][NMeF]T[NMeA][NMeF]D-Piperidide; lactam N-11)	0.19 ×10⁻⁶ cm/s
